{"source": "patent US6525090B1", "about": "“Methods of treating mental diseases, inflammation and pain” (Neurosciences Research Foundation, Inc., priority 1996, dated 2003)", "key": {"[1]": {"biological_target": "rat brain anandamide amidohydrolase (Rattus norvegicus, UniProt P97612)", "assay": "biochemical", "description": "Anandamide amidohydrolase was measured in rat brain or rat liver microsome fractions. The fractions (0.1 mg of protein) were prepared following the protocols of Desarnaud et al., J. Biol. Chem. 270, 6030-6035 (1995), and were incubated in 50 mM Tris-Cl (pH 7.4) at 37° C., in the presence of radiolabeled anandamide obtained from New England Nuclear, Wilmington, Del., 221 Ci/mmol), plus various concentrations of test inhibitor (0.1-100 μM). After 10 min. of incubation, the reactions were stopped with cold methanol, the radiolabeled lipids extracted with chloroform, and the organic phases brought to dryness under a stream of N2 gas. The radioactive products were then fractionated by thin-layer chromatography (solvent system: chloroform/methanol/ammonia, 90:10:1 vol/vol/vol), collected by scraping appropriate areas of the chromatography plate, and quantified by liquid scintillation counting."}, "[2]": {"biological_target": "T1, anandamide amidohydrolase of intact astrocytes (Rattus norvegicus, UniProt P97612)", "T1 construct": "endogenous in cells; host or cells: primary rat cortical astrocytes, 3 weeks in culture", "T1 sequence (P97612 1-579)": "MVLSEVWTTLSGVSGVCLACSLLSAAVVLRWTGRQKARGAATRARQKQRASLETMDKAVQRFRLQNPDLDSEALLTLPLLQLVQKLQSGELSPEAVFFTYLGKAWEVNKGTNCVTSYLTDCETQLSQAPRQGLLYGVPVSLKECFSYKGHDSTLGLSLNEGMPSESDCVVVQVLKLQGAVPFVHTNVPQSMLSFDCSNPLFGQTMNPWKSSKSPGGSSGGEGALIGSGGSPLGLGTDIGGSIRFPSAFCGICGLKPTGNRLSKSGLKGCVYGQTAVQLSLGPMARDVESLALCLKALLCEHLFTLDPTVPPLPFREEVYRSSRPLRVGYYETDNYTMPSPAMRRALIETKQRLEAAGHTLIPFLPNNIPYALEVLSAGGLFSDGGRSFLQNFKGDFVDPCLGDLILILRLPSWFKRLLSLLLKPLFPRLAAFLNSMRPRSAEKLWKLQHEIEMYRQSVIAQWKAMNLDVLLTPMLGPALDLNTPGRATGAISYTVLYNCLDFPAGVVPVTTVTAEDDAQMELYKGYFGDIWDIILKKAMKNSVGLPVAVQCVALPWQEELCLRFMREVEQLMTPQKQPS", "assay": "Assay in cultures of cortical astrocytes (anandamide amidohydrolase of intact cells)", "assay_type": "cell-based", "settings": "rat cortical astrocyte cultures, 20 min incubation, 37° C., radiolabeled arachidonic acid or phospholipids measured; read-out: IC50, inhibition of anandamide amidohydrolase of intact astrocytes", "method": "Cultures of rat cortical astrocytes, essentially free of neurons, were prepared following the standard procedures described in Cadas et al., J. Neurosci. 16, 3934-3942 (1996), and used after 3 weeks in culture. […] The organic phases were dried, and analyzed as follows. To measure radiolabeled anandamide and arachidonic acid, the organic extracts were fractionated by silica gel G column chromatography, as described in Fontana et al., Prostaglandins Leukotrienes Essential Fatty Acids 53, 301-308 (1995). Radiolabeled anandamide and arachidonic acid were eluted from the column with a solvent system of chloroform/methanol (9:1, vol/vol), and further purified by thin-layer chromatography (solvent system of chloroform/methanol/ammonia, 80:20:1, vol/vol/vol). To measure radiolabeled phospholipids, which were formed in intact cells from the enzymatic esterification of radiolabeled arachidonic acid, the organic extracts were fractionated by thin-layer chromatography (solvent system of chloroform/methanol/ammonia/water, 65:25:4:1, vol/vol/vol/vol)."}, "[3]": {"biological_target": "T2, rat liver anandamide amidohydrolase (Rattus norvegicus, UniProt P97612)", "T2 construct": "Anandamide amidohydrolase was measured in rat brain or rat liver microsome fractions; from tissue; host or cells: rat liver microsome fractions", "T2 sequence (P97612 1-579)": "T1 sequence (P97612 1-579)", "assay": "Anandamide amidohydrolase assay, rat liver microsome fractions", "assay_type": "biochemical", "description": "Anandamide amidohydrolase was measured in rat brain or rat liver microsome fractions. […] After 10 min. of incubation, the reactions were stopped with cold methanol, the radiolabeled lipids extracted with chloroform, and the organic phases brought to dryness under a stream of N2 gas. The radioactive products were then fractionated by thin-layer chromatography (solvent system: chloroform/methanol/ammonia, 90:10:1 vol/vol/vol), collected by scraping appropriate areas of the chromatography plate, and quantified by liquid scintillation counting."}, "[4]": {"system": "uptake of radiolabeled anandamide", "assay": "Uptake and intracellular level of radiolabeled anandamide in cortical astrocyte cultures", "assay_type": "cell-based", "settings": "rat cortical astrocyte cultures"}}}
{"smiles": "O=C1O/C(=C/Br)CCC1c1cccc2ccccc12", "note": "(stereo not drawn) [E-6-(bromomethylene)tetrahydro-3-(1-naphthalenyl)-2H-pyrane-2-one]", "values": [{"measurement": "IC50", "setting": "[1]", "result": 700, "unit": "nM"}, {"measurement": "IC50", "setting": "[2]", "result": 500, "unit": "nM"}, {"measurement": "inhibitory concentrations for liver enzyme relative to brain", "setting": "[3]; liver versus brain anandamide amidohydrolase", "result": "more than 100 fold"}, {"measurement": "IC50", "setting": "[3]; rat liver microsome fractions, 10 min incubation, 37° C., pH 7.4, radiolabeled anandamide, read-out: IC50, inhibition of the liver enzyme", "result": 97000, "unit": "nM"}, {"measurement": "inhibition of uptake of radiolabeled anandamide", "setting": "[4]", "result": "does not inhibit"}, {"measurement": "intracellular levels of radiolabeled anandamide", "setting": "[4]; in the presence of the compound", "result": "greatly increased"}]}
